# In patent US11331327B2, “Antibacterial use of halogenated salicylanilides” (UNION therapeutics A/S, priority 2014, dated 2022):
# “And” between values parts separate entries of the source, which are not always exact repeats. Identical values can stand only once. Like-named read-outs stand apart in the source and are kept apart here. Marks after values point to notes of the source that are not given here.
# Columns and labels:
# [1] = tested on: MRSA 01, MRSA 15, MRSA 16; assay: Mutational frequency evaluation, Example 3; assay type: cell-based, Staphylococcus aureus; conditions: for Frequency of spontaneous mutations conferring resistance: strain MRSA 01, average of 10 replicates; for mutation frequency at MIC×1: no colony grew
# Protocol: Strains were conserved in Luria Bertani (LB) Broth supplemented with glycerol 15% (v/v) at −80° C., and reactivated by isolation on LB agar plates. Strains were cultivated aerobically in Mueller Hinton (MH) Broth-cation adjusted at 37° C.
# The frequency of spontaneous single-step mutations was determined on the 3 different strains as described by Drago et al. (2005) and Pannu et al. (2011). […] Adequate dilutions were plated on plates without the compound.
# Viable cell growth was enumerated after 48 hours of incubation at 37° C.
# The spontaneous resistance frequency for an isolate-drug combination was calculated from the number of colonies that grew on plates containing drug versus the number of colonies that grew on drug-free agar.
# Ten replicates were carried out for each strain and fusidic acid, mupirocin and retapamulin were used as controls for the MRSA 01 strain.
# S. aureus strains = assay: Minimum Inhibitory Concentration (MIC) assay, Example 1, S. aureus strains; assay type: cell-based; conditions: Staphylococcus aureus
# Protocol: (§1) Strains were conserved in Luria Bertani (LB) Broth (S. aureus) or Brain Heart Infusion (BHI) (S. pyogenes) supplemented with glycerol 15% (v/v) at −80° C., and reactivated by isolation on LB (S. aureus) or BHI (S. pyogenes) agar plates. Strains were cultivated in Mueller Hinton (MH) Broth-cation adjusted (S. aureus) supplemented with lysed horse blood 2.5% (v/v) (S. pyogenes). All strains were cultivated at 37° C., aerobically for S. aureus strains.
# (§2) Bacterial cultures were stopped in their exponential growth phase and plates were inoculated with the approximate concentration of 10^3 cells per well. Plates were incubated at 37° C. for 18 hours (S. aureus) or 24 hours (S. pyogenes). Optical density at a wavelength of 600 nm was measured at the end of the incubation time. […] Experiments were performed at least as triplicate biological replicates with all strains.
# [2] = cited from earlier work
# P. aeruginosa = conditions: cited from earlier work
# MRSA 01 [3] = assay: Effect of pH on the antibacterial activity (MIC) of niclosamide; assay type: cell-based, Staphylococcus aureus; conditions: for MIC: Staphylococcus aureus, MRSA
# Protocol: This strain was conserved in Luria Bertani (LB) Broth supplemented with glycerol 15% (v/v) at −80° C., and reactivated by isolation on LB agar plates. It was then cultivated aerobically in Mueller Hinton (MH) Broth-cation adjusted at 37° C.
# The pH of Mueller-Hinton Broth cation-adjusted was adjusted with HCl 2M to 7, 6.5, 6, 5.5, 5, 4.5 and […]. Ten ml of medium for each pH were prepared. pH of non-adjusted MHBII was equal to 7.4.
# Each pH-adjusted samples were filtered on 0.2 μm filters before being used for the MIC determination assay.
# Bacterial culture was stopped in its exponential growth phase and plates were inoculated with the approximate concentration of 5×10^5 cells per well. Plates were incubated at 37° C. for 18 hours (S. aureus).
# The experiment was performed in triple biological replicates.
# MRSA 01 [4] = assay: Time-kill assay; assay type: cell-based, Staphylococcus aureus; conditions: niclosamide 4 μg/ml (MIC×10), initial inoculum 7 log10 cfu/ml
# Protocol: Assay was performed in 20 ml of medium. It included a negative control (medium without bacteria), a positive control (bacteria grown without niclosamide) and the assay (bacteria grown with niclosamide). […] This experiment was performed with the primary test microorganism indicated above.
# The overnight culture was stopped and OD600 was measured. Culture was then diluted in indicated medium to obtain an OD600 of 0.25 in order to have about 5×10^8 cfu/ml. Two hundred μl of this diluted culture were then added in all conditions except in the negative control. Initial bacterial concentration was about 5×10^6 cfu/ml. Tubes were incubated aerobically at 37° C. for 24 hours.
# Bacteria were enumerated before the incubation, after 30 minutes, 1, 2, 4, 8 and 24 hours of incubation by serial dilutions in NaCl 0.9% and plating on LB agar, with 2 plates per dilution. Plates were incubated at 37° C. and colonies enumerated after 24 hours.
# S. pyogenes strains = assay: Minimum Inhibitory Concentration (MIC) assay, Example 1, S. pyogenes strains; assay type: cell-based, Streptococcus pyogenes
# Protocol: as §1, §2
# [5] = cats, p.o.; cited from earlier work
# [6] = tested on: quorum sensing response in P. aeruginosa; conditions: reduction of quorum sensing response in P. aeruginosa; cited from earlier work
# MRSA 01 [7] = assay: Colony-forming unit (CFU) in skin lesions of mice challenged with MRSA 01; assay type: in vivo, Staphylococcus aureus; conditions: female Balb/c mice, MRSA 01 skin lesion, topical twice daily for three days, Experiment 1
# Protocol: Three animal studies were performed with niclosamide and fusidic acid as comparison with different formulations and doses.
# In each experiment, female Balb/c mice received a skin lesion approximately 1 cm^2 and were challenged with 1.5×10^8 cfu MRSA 01 topically. Twenty-four hours after the wound formation and the contamination, mice were treated topically with 0.05 ml twice daily for three days. Mice were sacrificed on day 4, skin lesions were excised and cfu quantitated. Fusidin ointment (2% from Leo Pharma) was included as control.
structure (smiles),measurement,setting,value
CC(=O)O[C@H]1C[C@@]2(C)[C@@H](C[C@@H](O)[C@H]3[C@@]4(C)CC[C@@H](O)[C@@H](C)[C@@H]4CC[C@@]32C)/C1=C(\CCC=C(C)C)C(=O)O [Fusidic acid],mutational frequency at MIC×1,[1]; MRSA 01,≥ 4.10^−5
same,mutational frequency at MIC×10,[1]; MRSA 01,3.10^−7
same,Frequency of spontaneous mutations conferring resistance,[1]; concentration MIC × 1,≥4.10^−5
same,Frequency of spontaneous mutations conferring resistance,[1]; concentration MIC × 2,2.10^−5
same,Frequency of spontaneous mutations conferring resistance,[1]; concentration MIC × 4,1.10^−6
same,Frequency of spontaneous mutations conferring resistance,[1]; concentration MIC × 10,3.10^−7
C/C(=C\C(=O)OCCCCCCCCC(=O)O)C[C@@H]1OC[C@H](C[C@@H]2O[C@H]2[C@@H](C)[C@H](C)O)[C@@H](O)[C@H]1O [Mupirocin],Frequency of spontaneous mutations conferring resistance,[1]; concentration MIC × 1,≥4.10^−5
same,Frequency of spontaneous mutations conferring resistance,[1]; concentration MIC × 2,8.10^−8
same,Frequency of spontaneous mutations conferring resistance,[1]; concentration MIC × 4,1.10^−8
same,Frequency of spontaneous mutations conferring resistance,[1]; concentration MIC × 10,≤4.10^−9
"O=C(Nc1ccc([N+](=O)[O-])cc1Cl)c1cc(Cl)ccc1O [Niclosamide, 5-chloro-N-(2-chloro-4-nitrophenyl)-2-hydroxybenz-amide]",MIC,"S. aureus strains; S. aureus strains, read-out: Mic100 S. aureus",≤ 0.4 µg/mL and ≤ 1.25 µM
same,MIC,"S. aureus strains; against S. aureus strains, including strains resistant to fusidic acid and to mupirocin (FIG. 1), read-out: MIC",≤ 0.4 µg/mL
same,LD50 mice p.o,[2]; Table 3,>1500 mg/kg
same,LD50,"[2]; mice, p.o.",> 5000 mg/kg
same,effect on growth of P. aeruginosa,P. aeruginosa,does not affect the growth
same,inhibitory activity against MRSA 01 as a function of pH,"MRSA 01 [3]; MRSA 01, pH 7.4 to 5.5",increased when pH was decreased
same,pH at which the maximal inhibitory effect was observed,"MRSA 01 [3]; MRSA 01, pH-adjusted Mueller-Hinton Broth",5.5
same,MIC,"MRSA 01 [3]; MRSA 01, pH 5.5 (actual pH 5.530), Replicate 3",≤ 0.008 µg/mL
same,MIC,"MRSA 01 [3]; MRSA 01, pH 5.5 (actual pH 5.547), Replicate 2",≤ 0.008 µg/mL
same,MIC,"MRSA 01 [3]; MRSA 01, pH 5.5 (actual pH 5.569), Replicate 1",≤ 0.03 µg/mL
same,MIC,"MRSA 01 [3]; MRSA 01, pH 6.0 (actual pH 5.893), Replicate 1",0.06 µg/mL
same,MIC,"MRSA 01 [3]; MRSA 01, pH 6.0 (actual pH 5.955), Replicate 2",0.06 µg/mL
same,MIC,"MRSA 01 [3]; MRSA 01, pH 6.0 (actual pH 5.980), Replicate 3",0.016 µg/mL
same,MIC,"MRSA 01 [3]; MRSA 01, pH 6.5 (actual pH 6.512), Replicate 1",0.125 µg/mL
same,MIC,"MRSA 01 [3]; MRSA 01, pH 6.5 (actual pH 6.540), Replicate 3",0.03 µg/mL
same,MIC,"MRSA 01 [3]; MRSA 01, pH 6.5 (actual pH 6.566), Replicate 2",0.06 µg/mL
same,MIC,"MRSA 01 [3]; MRSA 01, pH 7.0 (actual pH 6.921), Replicate 1",0.25 µg/mL
same,MIC,"MRSA 01 [3]; MRSA 01, pH 7.0 (actual pH 7.025), Replicate 3",0.125 µg/mL
same,MIC,"MRSA 01 [3]; MRSA 01, pH 7.0 (actual pH 7.071), Replicate 2",0.125 µg/mL
same,MIC,"MRSA 01 [3]; pH 7.4, MRSA 01, pH not adjusted (actual pH 7.4), Replicate 1",0.5 µg/mL
same,MIC,"MRSA 01 [3]; pH 7.4, MRSA 01, pH not adjusted (actual pH 7.4), Replicate 2",0.25 µg/mL
same,MIC,"MRSA 01 [3]; pH 7.4, MRSA 01, pH not adjusted (actual pH 7.4), Replicate 3",0.5 µg/mL
same,bactericidal or bacteriostatic effect (time-kill curve),MRSA 01 [4],bacteriostatic effect
same,mutation frequency at MIC×1,[1]; MRSA 15,< 3×10^−8
same,mutation frequency at MIC×1,[1]; MRSA 16,< 1×10^−7
same,mutational frequency at MIC×1,"[1]; all tested strains (MRSA 01, MRSA 15, MRSA 16), below the detection limit",< 4.10^−9
same,Frequency of spontaneous mutations conferring resistance,[1]; concentration MIC × 1,<4 × 10^−9*
same,Frequency of spontaneous mutations conferring resistance,[1]; concentration MIC × 2,<4 × 10^−9*
same,Frequency of spontaneous mutations conferring resistance,[1]; concentration MIC × 4,<4 × 10^−9*
same,Frequency of spontaneous mutations conferring resistance,[1]; concentration MIC × 10,<4 × 10^−9*
same,MIC,"S. pyogenes strains; Streptococcus pyogenes, S. pyogenes strains, read-out: Mic100 S. pyogenes",≤ 3 µg/mL and ≤ 3 µM
same,MIC,"S. pyogenes strains; against Streptococcus pyogenes strains (FIG. 1), read-out: MIC",≤ 3.2 µg/mL
same,LD50,[5],> 1000 mg/kg
same,concentration at which some inhibition was detected,[6],1 µM
same,concentration required for optimal activity,[6],20 µM
same,bacterial reduction (CFU in skin lesions) compared to control vehicles,MRSA 01 [7],significant bacterial reductions
C=C[C@]1(C)C[C@@H](OC(=O)CS[C@@H]2C[C@H]3CC[C@@H](C2)N3C)[C@]2(C)[C@H](C)CC[C@]3(CCC(=O)[C@H]32)[C@@H](C)[C@@H]1O [Retapamulin],Frequency of spontaneous mutations conferring resistance,[1]; concentration MIC × 1,≥4.10^−5
same,Frequency of spontaneous mutations conferring resistance,[1]; concentration MIC × 2,3.10^−7
same,Frequency of spontaneous mutations conferring resistance,[1]; concentration MIC × 4,2.10^−8
same,Frequency of spontaneous mutations conferring resistance,[1]; concentration MIC × 10,<4.10^−9*
